Here are results for two compounds from patent US20230330094A1, “COMBINATION COMPOSITIONS AND METHODS FOR TREATING CANCER” (The Board of Supervisors of Louisiana State University and …, priority 2020, published 2023).

One data set concerns the target T1, P2×2 (Homo sapiens, UniProt Q9UBL9).
T1 sequence (Q9UBL9 1-471): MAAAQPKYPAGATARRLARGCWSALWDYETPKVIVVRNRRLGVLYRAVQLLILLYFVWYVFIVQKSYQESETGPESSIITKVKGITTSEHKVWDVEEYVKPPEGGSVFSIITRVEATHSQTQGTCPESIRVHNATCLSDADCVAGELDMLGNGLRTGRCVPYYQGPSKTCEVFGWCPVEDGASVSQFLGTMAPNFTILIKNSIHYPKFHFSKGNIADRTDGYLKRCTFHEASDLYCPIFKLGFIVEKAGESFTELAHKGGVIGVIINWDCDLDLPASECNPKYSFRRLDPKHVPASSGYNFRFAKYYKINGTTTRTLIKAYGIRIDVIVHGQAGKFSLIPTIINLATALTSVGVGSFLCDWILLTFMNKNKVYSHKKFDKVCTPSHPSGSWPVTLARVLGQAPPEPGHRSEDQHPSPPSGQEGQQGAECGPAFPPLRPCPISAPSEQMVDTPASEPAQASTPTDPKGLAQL
The note with it: cited from earlier work.

The next data set relates to P2Xs. The note with it: cited from earlier work.
In a further data set the target is P2Y 2 (Homo sapiens, UniProt P41231). The note with it: cited from earlier work.
Chain of P2Y 2 (P41231 whole entry, species assumed): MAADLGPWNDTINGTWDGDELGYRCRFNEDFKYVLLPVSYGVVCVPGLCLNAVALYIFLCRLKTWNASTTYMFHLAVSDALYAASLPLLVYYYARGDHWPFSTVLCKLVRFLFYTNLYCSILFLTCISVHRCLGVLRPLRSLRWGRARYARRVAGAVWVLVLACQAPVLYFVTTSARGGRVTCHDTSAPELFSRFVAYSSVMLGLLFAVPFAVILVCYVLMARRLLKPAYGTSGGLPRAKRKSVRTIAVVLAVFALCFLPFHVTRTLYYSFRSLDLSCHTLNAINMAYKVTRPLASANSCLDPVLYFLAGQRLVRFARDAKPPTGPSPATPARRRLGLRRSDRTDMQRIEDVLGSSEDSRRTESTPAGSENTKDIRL
The target in the next data set is P2Y4 (Homo sapiens, UniProt P51582). Particulars: cited from earlier work.
Chain of P2Y4 (P51582 whole entry, species assumed): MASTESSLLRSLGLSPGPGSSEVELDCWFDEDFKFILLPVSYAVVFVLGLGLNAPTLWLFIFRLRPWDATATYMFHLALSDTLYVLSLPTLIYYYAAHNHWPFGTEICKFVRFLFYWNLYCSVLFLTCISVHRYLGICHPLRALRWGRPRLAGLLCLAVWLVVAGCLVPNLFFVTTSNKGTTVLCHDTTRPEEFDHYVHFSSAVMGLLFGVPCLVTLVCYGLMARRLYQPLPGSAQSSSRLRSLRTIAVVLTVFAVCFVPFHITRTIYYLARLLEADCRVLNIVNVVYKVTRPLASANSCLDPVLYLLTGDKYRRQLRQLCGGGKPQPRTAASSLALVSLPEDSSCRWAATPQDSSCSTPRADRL
The test system of data set [1] is luciferase-modified U87MG tumor cells. In words: In vivo bioluminescent imaging of intracranial tumor growth, orthotopic GBM mouse model. Particulars: imaging days 13, 20 and 30; vs saline/vehicle.
For data set [2] the test system is unchanged. Nature of the data set: Ex vivo T1-weighted MRI tumor volume, orthotopic GBM mouse model. It is filed as in vivo. Particulars: day 30, ex vivo MRI; vs saline. As to the method:
Athymic nude female mice (Charles Rivers Laboratories and Envigo), 6 to 8 weeks of age, were anesthetized with a ketamine/xylazine cocktail solution (100 mg/kg; 10 mg/kg). Then, mice were secured in a stereotactic head frame and a midline 1 cm incision over the scalp was made. Natural tears lubricant was applied to the eyes. For each mouse, 5 × 10^6 U87MG cells in 5 µL serum free Dulbecco’s Modified Eagle Medium (DMEM) tagged with a luciferase […] gene were implanted into the right hippocampus using a 10 µL Hamilton syringe at the following coordinates, in reference to the bregma: 1.5 mm lateral, 1.5 mm posterior and 3.5 mm in depth; the needle was lowered to 3.5 mm and pulled up by 1 mm, prior to the injection (Marrero et al., 2014) (FIG. 1B). Rectal and cranial temperatures will be maintained at 36-37° C. during surgical procedure. […]
Treatment was administered starting on day 13 after implantation, and intracranial tumor growth was quantified using in vivo bioluminescent imaging on days 13 (before treatment) and then 20 and 30. […]
Cheshire image processing software (Hayden Image/Processing Group, Waltham, MA), was used to manually outline whole brain and tumor volumes enhanced by Gd deposition. […] Whole brain and tumor volumes (mm^3) were extracted and analyzed (Jeffes et al., 2005; Blasiak et al., 2013). […]

Data set [3] in a line: Physiological variables (body weight, temperature, survival) in GBM mouse model. In kind it is in vivo. The procedure:
Athymic nude female mice (Charles Rivers Laboratories and Envigo), 6 to 8 weeks of age, were anesthetized with a ketamine/xylazine cocktail solution (100 mg/kg; 10 mg/kg). Then, mice were secured in a stereotactic head frame and a midline 1 cm incision over the scalp was made. Natural tears lubricant was applied to the eyes. […] Rectal and cranial temperatures will be maintained at 36-37° C. during surgical procedure. The incision was closed using black monofilament nylon 5.0 sterile sutures and the area was cleaned with betadine solution. The mice were placed in individual cages and observed daily for weight, temperature, and locomotor changes. Mice were perfused at the end of the 30-day survival, brains removed and ex vivo MRI imaging were conducted.
Mice were anesthetized with a ketamine/xylazine cocktail solution (100 mg/kg; 10 mg/kg) and secured in a stereotactic head frame. A midline, 1 cm incision was made over the scalp. Natural tear lubricant was applied to the eyes. For each mouse, 5 × 10^6 U87MG cells in 5 µL serum-free Dulbecco’s Modified Eagle Medium (DMEM) were injected into the right hippocampus using a 10 µL Hamilton syringe at the following coordinates related to the bregma: 1.5 mm lateral, 1.5 mm posterior, and 3.5 mm in depth. […]

For a further data set, the system named is recurrent GBM. The note with it: single agent or in combination with chemotherapy; cited from earlier work.

“Also recorded” adds a separate entry of the source.

Take `Cc1ccc(C(=O)Nc2ccc(S(=O)(=O)O)c3cc(S(=O)(=O)O)cc(S(=O)(=O)O)c23)cc1NC(=O)c1cccc(NC(=O)Nc2cccc(C(=O)Nc3cc(C(=O)Nc4ccc(S(=O)(=O)O)c5cc(S(=O)(=O)O)cc(S(=O)(=O)O)c45)ccc3C)c2)c1` [Suramin]: the “pEC50 (P2×2)” value on P2×2 is given as 4.5. Further, the “pEC50 (P2Xs)” value with P2Xs is listed as 5.4. In addition, the “pEC50 (P2Y 2)” value on P2Y 2 is reported as 4.3. The “pEC50 (P2Y4)” value on P2Y4 is given as 4.0.

“Avastin: recombinant humanized anti-VEGF monoclonal antibody”: in data set [1], the “Bioluminescent tumor growth/size vs vehicle (in words)” value was “reduced tumor size; also recorded: repress orthotopic GBM; also recorded: significantly reduced tumorigenesis; also recorded: significant reduction in growth and size”. For the same compound, in data set [2], the “MRI (T1WI) tumor volume reduction compared to vehicle” value is listed as 67% and the “MRI (T1WI) tumor volume vs vehicle (in words)” value is “reduced GBM tumor volumes”. For the same compound, the Survival result in data set [3] (30-day survival period) is “improved survival”. Also, the “Change in rectal temperature compared to vehicle” value in data set [3] (during the 30 days of survival) is given as “No significant changes”. Further, the Radiographic response rate entry in the data set on recurrent GBM is listed as “up to 40%”.
